{"source": "patent US6794379B2", "about": "“CXCR3 antagonists” (Tularik Inc., priority 2001, dated 2004)", "note": "Counter-ions that a name gives are not always drawn.", "data": [{"units": {"melting point": "°C"}, "values": [{"compound": "Cc1ccc(CC(=O)N(CCN(C)C)C(C)c2nc3ccccc3c(=O)n2-c2ccc(F)cc2)cc1", "note": "(stereo not drawn)", "melting point": 188.3}, {"compound": "CCOCCN(C(=O)Cc1ccc(-c2ccccc2)cc1)C(C)c1nc2ccccc2c(=O)n1-c1ccc(F)cc1", "note": "(stereo not drawn) [Compound 1.19]", "melting point": 150.6}, {"compound": "C[C@H](c1nc2ccccc2c(=O)n1-c1ccc(F)cc1)N(Cc1nccs1)C(=O)Cc1ccc(C(F)(F)F)cc1", "melting point": "173 to 174"}, {"compound": "CCOCCN(C(=O)Cc1cccc(C(F)(F)F)c1)C(C)c1nc2ccccc2c(=O)n1-c1ccc(OCC)cc1", "note": "(stereo not drawn) [Compound 9.08]", "melting point": 157.9}, {"compound": "CCOc1ccc(-n2c(C(C)N(Cc3ccccn3)C(=O)Cc3ccc(C(F)(F)F)cc3)nc3ccccc3c2=O)cc1", "note": "(stereo not drawn) (as salt: hydrochloride) [Compound 3.04, 2-((N-2-Picolyl)-N-(4-trifluoromethylphenylacetyl)-1-aminoethyl)-3-(4-ethoxyphenyl) -3H-quinazoline-4-one]", "melting point": 167.5}, {"compound": "COCCN(C(=O)Cc1ccc(-c2ccccc2)cc1)C(C)c1nc2ccccc2c(=O)n1-c1ccc(F)cc1", "note": "(stereo not drawn) [Compound 1.17]", "melting point": 153.8}, {"compound": "CCOCCN(C(=O)Cc1ccc(F)c(C(F)(F)F)c1)[C@H](C)c1nc2ccccc2c(=O)n1-c1ccc(OCC)cc1", "note": "[Compound 3.26]", "melting point": "137 to 138"}, {"compound": "CC(=O)CN(C(=O)Cc1ccc(C(F)(F)F)cc1)[C@H](C)c1nc2ccccc2c(=O)n1-c1ccc(F)cc1", "note": "[Compound 3.22]", "melting point": "220 to 221"}, {"compound": "CCOCCN(C(=O)Cc1ccc(-c2ccccc2)cc1)C(C)c1nc2ccccc2c(=O)n1-c1ccc(OCC)cc1", "note": "(stereo not drawn)", "melting point": 98.1}, {"compound": "COc1ccc(-n2c(C(C)N(CCN3CCCC3)C(=O)Cc3ccc(-c4ccccc4)cc3)nc3ccccc3c2=O)cc1F", "note": "(stereo not drawn) [Compound 1.33]", "melting point": 96.9}, {"compound": "CC(c1nc2ccccc2c(=O)n1-c1ccc(F)cc1)N(Cc1cccnc1)C(=O)Cc1ccc(C(F)(F)F)cc1", "note": "(racemic)", "melting point": 167}, {"compound": "CCOCCN(C(=O)Cc1ccc(OC(F)(F)F)cc1)C(C)c1nc2ccccc2c(=O)n1-c1ccc(OCC)cc1", "note": "(stereo not drawn) [Compound 3.30]", "melting point": 153}, {"compound": "C[C@H](c1nc2ccccc2c(=O)n1-c1ccc(F)cc1)N(CCOCC(F)(F)F)C(=O)Cc1ccc(C(F)(F)F)cc1", "note": "[Compound 9.04]", "melting point": 156.2}, {"compound": "CCOCCN(C(=O)Cc1ccc(C(F)(F)F)c(F)c1)[C@H](C)c1nc2ccccc2c(=O)n1-c1ccc(OCC)cc1", "note": "[Compound 3.27]", "melting point": "146 to 148"}, {"compound": "C[C@H](c1nc2ccccc2c(=O)n1-c1ccc(F)cc1)N(CCOCC(F)(F)F)C(=O)Cc1ccc(-c2ccccc2)cc1", "note": "[Compound 9.03]", "melting point": 167.9}, {"compound": "COc1ccc(-n2c(C(C)N(CCN3CCCC3)C(=O)Cc3ccc(-c4ccccc4)cc3)nc3ccccc3c2=O)cc1", "note": "(stereo not drawn) [Compound 1.34]", "melting point": 116.3}, {"compound": "COc1ccc(-n2c(C(C)N(CCN(C)C)C(=O)Cc3ccc(OCc4ccccc4)cc3)nc3ccccc3c2=O)cc1", "note": "(stereo not drawn) [Compound 1.36]", "melting point": 61.3}, {"compound": "CCOc1ccc(-n2c(C(C)N(Cc3cccnc3)C(=O)Cc3ccc(F)c(F)c3)nc3ccccc3c2=O)cc1", "note": "(stereo not drawn) [Compound 3.34]", "melting point": 75.5}, {"compound": "CC(c1nc2ccccc2c(=O)n1-c1ccc(F)cc1)N(CCN(C)C)C(=O)c1ccc(-c2ccccc2)cc1", "note": "(stereo not drawn) [Compound 1.06]", "melting point": 147.3}, {"compound": "CC(c1nc2ccccc2c(=O)n1-c1ccc(F)cc1)N(CCN(C)C)C(=O)Cc1ccccc1", "note": "(stereo not drawn)", "melting point": 153}, {"compound": "CCOCCN(C(=O)Cc1cc(C(F)(F)F)cc(C(F)(F)F)c1)[C@H](C)c1nc2ccccc2c(=O)n1-c1ccc(OCC)cc1", "note": "[Compound 3.25]", "melting point": "57 to 60"}, {"compound": "C#Cc1ccc(-n2c(C(C)N(CCOC)C(=O)Cc3ccc(-c4ccccc4)cc3)nc3ccccc3c2=O)cc1", "note": "(stereo not drawn) [Compound 3.12, 2-((N-2-Methoxyethyl)-N-(4-phenylphenylacetyl)-1-aminoethyl)-3-(4-ethynylphenyl) -3H-quinazoline-4-one]", "melting point": 73.3}, {"compound": "CCOc1ccc(-n2c([C@@H](C)N(Cc3cccnc3)C(=O)Cc3ccc(OCC(F)(F)F)cc3)nc3ccccc3c2=O)cc1", "note": "[Compound 3.28]", "melting point": "103 to 104"}, {"compound": "CCOCCN(C(=O)Cc1ccc(F)c(F)c1F)C(C)c1nc2ccccc2c(=O)n1-c1ccc(OCC)cc1", "note": "(stereo not drawn) [Compound 3.32]", "melting point": 146.3}]}]}
